Test results: BindingDB's records for patent US12486274 (Verge Analytics, 2025)

Molecular target: 1-phosphatidylinositol 3-phosphate 5-kinase (Homo sapiens, UniProt Q9Y2I7)
Experiment: Inhibition of PIKfyve
Protocol: The kinase reactions were assembled in 384-well plates (Greiner) in a total volume of […] as follows. Kinase protein was pre-diluted in an assay buffer comprising 25 mM HEPES, pH 7.5, 1 mM DTT, 2.5 mM MgCl2, and 2.5 mM MnCl2, and 0.005% Triton X-100, and dispensed into a 384-well plate (10 μL per well). Test compounds were serially pre-diluted in DMSO and added to the protein samples by acoustic dispensing (Labcyte Echo). The concentration of DMSO was equalized to 1% in all samples. All test compounds were tested at 12 concentrations. Apilimod was used as a reference compound and was tested in identical manner in each assay plate. Control samples (0%-inhibition, in the absence of inhibitor, DMSO only) and 100%-inhibition (in the absence of enzyme) were assembled in replicates of four and were used to calculate %-inhibition in the presence of compounds. The reactions were initiated by addition of 10 μL of 2× PI3P/PS substrate supplemented with ATP. The final concentration of enzyme was 2 nM, the final concentration of ATP was […], and the final concentration of PI3P/PS substrate was 1 μM (PI3P). The kinase reactions were allowed to proceed for 3 h at room temperature. Following incubation, the reactions were quenched by addition of […] of termination buffer (100 mM HEPES, pH 7.5, 0.01% Triton X-100, 20 mM EDTA).

Sequence of 1-phosphatidylinositol 3-phosphate 5-kinase (Q9Y2I7 whole entry): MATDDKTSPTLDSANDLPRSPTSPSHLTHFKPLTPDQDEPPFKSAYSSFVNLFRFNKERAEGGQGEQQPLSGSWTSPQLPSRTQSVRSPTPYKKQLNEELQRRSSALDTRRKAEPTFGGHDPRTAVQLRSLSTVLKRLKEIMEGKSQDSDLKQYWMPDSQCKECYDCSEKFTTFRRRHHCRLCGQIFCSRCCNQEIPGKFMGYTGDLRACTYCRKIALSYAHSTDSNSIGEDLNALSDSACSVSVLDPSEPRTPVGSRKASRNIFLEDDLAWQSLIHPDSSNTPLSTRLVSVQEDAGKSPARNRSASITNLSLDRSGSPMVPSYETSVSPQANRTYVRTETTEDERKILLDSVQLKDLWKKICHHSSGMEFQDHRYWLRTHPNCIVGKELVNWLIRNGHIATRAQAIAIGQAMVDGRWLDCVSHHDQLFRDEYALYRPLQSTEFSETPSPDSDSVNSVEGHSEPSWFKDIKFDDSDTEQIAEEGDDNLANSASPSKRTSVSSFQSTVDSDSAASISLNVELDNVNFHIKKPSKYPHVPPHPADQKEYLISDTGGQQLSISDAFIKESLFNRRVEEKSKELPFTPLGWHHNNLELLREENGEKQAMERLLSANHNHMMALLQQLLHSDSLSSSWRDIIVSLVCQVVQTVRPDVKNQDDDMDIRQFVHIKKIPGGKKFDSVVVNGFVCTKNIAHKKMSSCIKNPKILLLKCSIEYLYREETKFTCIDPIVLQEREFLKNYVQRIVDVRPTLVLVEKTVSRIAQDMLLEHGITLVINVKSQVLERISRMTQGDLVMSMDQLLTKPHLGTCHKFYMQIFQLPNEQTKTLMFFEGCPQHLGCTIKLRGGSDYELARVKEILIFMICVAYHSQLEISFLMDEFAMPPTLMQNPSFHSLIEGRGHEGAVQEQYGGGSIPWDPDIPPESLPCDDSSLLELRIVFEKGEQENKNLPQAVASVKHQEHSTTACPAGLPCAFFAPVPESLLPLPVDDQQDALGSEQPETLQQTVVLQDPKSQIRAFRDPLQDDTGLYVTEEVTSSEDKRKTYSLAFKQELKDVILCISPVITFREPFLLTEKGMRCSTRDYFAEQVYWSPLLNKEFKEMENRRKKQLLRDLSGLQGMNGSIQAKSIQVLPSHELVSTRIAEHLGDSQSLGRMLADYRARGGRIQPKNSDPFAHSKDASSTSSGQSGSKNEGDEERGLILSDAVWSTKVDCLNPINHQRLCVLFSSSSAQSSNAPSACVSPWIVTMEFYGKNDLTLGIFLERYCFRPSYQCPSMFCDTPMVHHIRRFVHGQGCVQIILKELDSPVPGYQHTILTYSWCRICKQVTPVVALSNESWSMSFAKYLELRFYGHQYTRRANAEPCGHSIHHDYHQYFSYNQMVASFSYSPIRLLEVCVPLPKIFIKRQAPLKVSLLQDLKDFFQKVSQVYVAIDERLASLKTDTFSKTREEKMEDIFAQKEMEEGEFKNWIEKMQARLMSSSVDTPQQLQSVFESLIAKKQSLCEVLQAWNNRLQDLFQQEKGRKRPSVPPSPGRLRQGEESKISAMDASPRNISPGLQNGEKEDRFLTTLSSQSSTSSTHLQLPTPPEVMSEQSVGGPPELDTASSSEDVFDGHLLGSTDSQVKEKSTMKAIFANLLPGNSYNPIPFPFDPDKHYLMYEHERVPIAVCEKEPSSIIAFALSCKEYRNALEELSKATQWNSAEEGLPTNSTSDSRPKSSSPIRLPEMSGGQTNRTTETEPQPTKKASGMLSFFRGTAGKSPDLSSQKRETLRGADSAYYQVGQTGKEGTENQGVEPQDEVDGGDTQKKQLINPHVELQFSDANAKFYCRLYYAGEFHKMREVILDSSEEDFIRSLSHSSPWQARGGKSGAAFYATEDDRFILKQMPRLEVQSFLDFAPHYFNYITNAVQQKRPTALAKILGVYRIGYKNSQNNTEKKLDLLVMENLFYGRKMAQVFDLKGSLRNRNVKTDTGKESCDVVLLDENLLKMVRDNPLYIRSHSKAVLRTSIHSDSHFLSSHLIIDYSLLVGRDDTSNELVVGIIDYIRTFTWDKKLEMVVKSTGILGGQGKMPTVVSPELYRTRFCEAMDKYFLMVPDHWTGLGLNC

IC50: 0.0299 µM
SMILES: Nc1ccc(-c2cc3nc(-n4ccc(-c5ccccc5)n4)cc(N4CCOCC4)n3n2)cn1 [US12486274, Compound 98]
